Experimental data as given in patent publication US20030027981A1, “Urokinase-type plasminogen activator receptor” (priority 1989, published 2003).

B1: PAI-2: human type-2 plasminogen activator inhibitor purified from U937 cells (protein, UniProt P05120 1-415, looked up)
Plasminogen activator …: MEDLCVANTLFALNLFKHLAKASPTQNLFLSPWSISSTMAMVYMGSRGSTEDQMAKVLQFNEVGANAVTPMTPENFTSCGFMQQIQKGSYPDAILQAQAADKIHSSFRSLSSAINASTGNYLLESVNKLFGEKSASFREEYIRLCQKYYSSEPQAVDFLECAEEARKKINSWVKTQTKGKIPNLLPEGSVDGDTRMVLVNAVYFKGKWKTPFEKKLNGLYPFRVNSAQRTPVQMMYLREKLNIGYIEDLKAQILELPYAGDVSMFLLLPDEIADVSTGLELLESEITYDKLNKWTSKDKMAEDEVEVYIPQFKLEEHYELRSILRSMGMEDAFNKGRANFSGMSERNDLFLSEVFHQAMVDVNEEGTEAAAGTGGVMTGRTGHGGPQFVADHPFLFLIMHKITNCILFFGRFSSP

Key:
u-PA = u-PA activity in medium of HT-1080 cultures (immunocapture assay); format: cell-based, human
Procedure: Cell culture supernatants were assayed for pro-u-PA and active u-PA by the following modification of an immunocapture method (Stephens et al., 1988; Stephens et al., 1987). Microtitre wells of polystyrene immunoplates (type 269620, A/S Nunc, Roskilde, Denmark) were coated overnight at 37° C. with 50 μl of a solution of goat IgG antibodies to human u-PA (cat. #398, American Diagnostica). The coating solution contained 2.5 μg of IgG per ml of […] sodium carbonate (pH 9.8). After rinsing, the wells were treated with conditioned medium ([…]) for 2 hours at 23° C., then rinsed again. Half the wells were then treated with 50 μl of freshly prepared 2 μM p-nitrophenyl guanidinobenzoate (NPGB, Sigma) (Danø, K., and E. Reich, “Plasminogen activator from cells transformed by an oncogenic virus—Inhibitors of the activator reaction”, Biochim. Biophys. Acta 566: 138-151, 1979) for 20 minutes at 37° C. The other half (controls) received 50 μl of rinsing buffer (0.05% Tween 20 in PBS). After rinsing, u-PA was assayed in all the wells by addition of 40 μl of plasminogen solution (100 μg/ml in assay buffer consisting of 50 mM sodium glycinate (pH 7.8), 0.1% Triton X-100, 0.1% gelatin and 10 mM 6-aminocaproic acid which also contained a very low concentration of plasmin (10 ng/ml)), and incubation took place for 30 minutes at 37° C. This concentration of plasmin in the plasminogen incubation was sufficient to enable full realization of the potential activity of pro-u-PA (cf. Petersen et al., 1988). The plasmin produced by this incubation was assayed by its thioesterase activity (Green, G. D. G., and E. Shaw, “Thiobenzyl benzyloxycarbonyl-L-lysinate, substrate for a sensitive colorimetric assay for trypsin-like enzymes”, Anal. Biochem. 93: 223-226, 1979) by the addition of 200 μl of a solution containing 200 mM potassium phosphate (pH 7.5), 200 MM KCl, 0.1% Triton X-100, 220 μM Z-lysine thiobenzyl ester (Peninsula Laboratories, Belmont, Calif.) and 220 μM 5,5′-dithiobis(2-nitrobenzoic acid) (Sigma). This mixture was incubated for 30 minutes at 37° C., and the absorbancies of the wells were read at 405 nm. Active u-PA (60,000 IU/mg) was purchased from Calbiochem-Behring (La Jolla, Calif.) and pro-u-PA (potential activity 90,000 IU/mg) was obtained from American Diagnostica.
The following additions were made to cell layers growing in MEM medium (0.5 ml) containing 10% heat-inactivated and plasminogen-depleted fetal calf serum: native human plasminogen (Plg, 40 μg/ml); anti-catalytic monoclonal antibody to human u-PA (10 μg/ml); anti-catalytic monoclonal antibody to human t-PA (10 μg/ml); PAI-2 (titration equivalent of 3.6 UI u-PA/ml); anti-catalytic monoclonal antibody to human plasmin (20 μg/ml); aprotinin (200 KIU/ml); tranexamic acid (TA, as shown). The cultures were incubated for the times shown before assay of cell-bound plasmin. The incubation with plasminogen was used as the 100% control for bound plasmin.
Confluent cell layers in serum medium (0.5 ml) were preincubated for 1 hour at 37° C. with an anti-catalytic monoclonal antibody to human u-PA (10 μg/ml) or PAI-2 (titration equivalent of 3.6 IU u-PA/ml). The cells were then rinsed three times with serum-free MEM medium before incubation for 3 hours at 37° C. with MEM medium containing 10% heat-inactivated and plasminogen-depleted fetal calf serum and native human plasminogen (Plg, 40 μg/ml). The incubation with plasminogen was used as the 100% control for bound plasmin while the control for u-PA was the incubation without plasminogen.

cell-bound pro-u-PA = experiment: Pro-u-PA index of cell-bound u-PA on HT-1080 cells (immunocapture assay with NPGB step); format: cell-based, human; conditions: for Pro-u-PA index (%): 2 h, serum medium, all with Plg 40 μg/ml, aprotinin (200 KIU/ml), anti-Plg-1 (20 μg/ml), TA (100 μM) rows also with anti-PAI-1 10 μg/ml
Procedure: FIG. 27. Activation of cell-bound u-PA proenzyme in serum medium after the addition of plasminogen. Confluent layers of HT-1080 cells were incubated with MEM medium containing 10% heat-inactivated and plasminogen-depleted fetal calf serum and native human plasminogen (40 μg/ml). After the time intervals shown, aprotinin (200 KIU/ml) was added and the rinsed cells were treated with acid-glycine to recover the bound fraction of u-PA. The u-PA in the neutralized eluate was assayed by an immunocapture method, using an NPGB inactivation step to determined the pro-u-PA index (see Methods).
Cell culture supernatants were assayed for pro-u-PA and active u-PA by the following modification of an immunocapture method (Stephens et al., 1988; Stephens et al., 1987). Microtitre wells of polystyrene immunoplates (type 269620, A/S Nunc, Roskilde, Denmark) were coated overnight at 37° C. with 50 μl of a solution of goat IgG antibodies to human u-PA (cat. #398, American Diagnostica). The coating solution contained 2.5 μg of IgG per ml of […] sodium carbonate (pH 9.8). After rinsing, the wells were treated with conditioned medium ([…]) for 2 hours at 23° C., then rinsed again. Half the wells were then treated with 50 μl of freshly prepared 2 μM p-nitrophenyl guanidinobenzoate (NPGB, Sigma) (Danø, K., and E. Reich, “Plasminogen activator from cells transformed by an oncogenic virus—Inhibitors of the activator reaction”, Biochim. Biophys. Acta 566: 138-151, 1979) for 20 minutes at 37° C. The other half (controls) received 50 μl of rinsing buffer (0.05% Tween 20 in PBS). After rinsing, u-PA was assayed in all the wells by addition of 40 μl of plasminogen solution (100 μg/ml in assay buffer consisting of 50 mM sodium glycinate (pH 7.8), 0.1% Triton X-100, 0.1% gelatin and 10 mM 6-aminocaproic acid which also contained a very low concentration of plasmin (10 ng/ml)), and incubation took place for 30 minutes at 37° C. This concentration of plasmin in the plasminogen incubation was sufficient to enable full realization of the potential activity of pro-u-PA (cf. Petersen et al., 1988). […] This mixture was incubated for 30 minutes at 37° C., and the absorbancies of the wells were read at 405 nm. […]
Pro-u-PA and active u-PA bound to the cell layer were recovered for immunocapture assays by the same method as was used in the metabolic labelling (see above). […] For conditioned medium and cell-bound u-PA, the u-PA activity assayed after NPGB treatment was expressed as a percentage of the total activity obtained without NPGB treatment, and this percentage used as an index of pro-u-PA content (pro-u-PA index). […]

[1] = 3 h, serum medium with Plg 40 μg/ml, additions as b555, control without Plg = 100
[2] = 17 h, serum medium with Plg 40 μg/ml, additions as b555, control without Plg = 100

Molecule | u-PA activity in medium (%) (u-PA; 3 h, Plg 40 μg/ml + TA 10 μM) | u-PA activity in medium (%) (u-PA; 3 h, Plg 40 μg/ml + TA 100 μM) | u-PA activity in medium (%) (u-PA; 17 h, Plg 40 μg/ml + TA 10 μM) | u-PA activity in medium (%) (u-PA; 17 h, Plg 40 μg/ml + TA 100 μM) | Pro-u-PA index (%) (cell-bound pro-u-PA) | u-PA activity in medium (%) (u-PA; [1]) | u-PA activity in medium (%) (u-PA; [2]) | Proportion of total surface-bound u-PA present as pro-u-PA (cell-bound pro-u-PA; cells incubated with human plasminogen 40 μg/ml in serum medium, plasminogen-free cultures approximately 90%) | u-PA activity in medium (%) (u-PA; cells preincubated 1 h with inhibitor, rinsed, then 3 h with Plg 40 μg/ml in serum medium)
NC[C@H]1CC[C@H](C(=O)O)CC1 [TA, tranexamic acid] | 116 | 92 | 87 | 95 | 88 | – | – | – | –
Plg: native human plasminogen (glutamic acid N-terminal) purified from human plasma on lysine-Sepharose | – | – | – | – | 50 | 111 | 83 | approximately 10% | –
aprotinin | – | – | – | – | 93 | 93 | 99 | – | –
B1 | – | – | – | – | – | 89 | 77 | – | 86
